The subject of series [1] is Rattus norvegicus. Particulars: subchronic, oral, gavage, Sprague-Dawley.
In series [2] the test system is Rattus norvegicus. Particulars: for LD50 / LC50: acute.
In series [3] the test system is Mus musculus. Particulars: for LD50 / LC50: acute.
Series [4] concerns Rattus norvegicus.
Series [5] has as its system Rattus norvegicus. Particulars: oral, Sprague-Dawley; for NOAEL: M/F.
[6] abbreviates: reproduction developmental, oral, gavage, F, Sprague-Dawley.
Where [7] appears, read: reproduction developmental, duration: 90 days, oral, diet, F.
The mark [8] stands for this setting: reproduction developmental, duration: 90 days, oral, diet, F, Fischer 344.
[9] abbreviates: reproduction developmental, duration: 90 days, oral, diet, Fischer 344, generation: F1.
Setting [10] is: reproduction developmental, duration: 90 days, oral, diet, generation: F1.
Setting [11] is: reproduction developmental, oral, M/F, reduced fertility index and reduced body weight of dams.
[12] abbreviates: subchronic, duration: 13 weeks, oral, diet, M/F, neurological dysfunction.
The mark [13] stands for this setting: reproduction developmental, oral, drinking water, F, reproductive effects.

Where “and” joins values, the source holds several entries; their conditions need not be identical. Equal entries are not always repeated.

In turn, `Cc1ccc2[nH]c3cc4c(=O)c5cc(C)ccc5[nH]c4cc3c(=O)c2c1` [C.I. Pigment Red 122] gave an NOEL in series [1] of 1000 mg/kg-day. For the same molecule, the 50% lethal dose (LD50) in series [2] (oral, gavage) is at least 5000 mg/kg; in series [3] (oral, gavage) it was at least 5000 mg/kg.

`CCN(O)CC` [N,N-Diethylhydroxylamine] came in with an LC50 in series [2] (inhalation, Sprague-Dawley) of 11400 mg/m3. Moreover, the LD50 stood at 2190 mg/kg in series [2] (oral, gavage, WBS/W) and 2150 mg/kg in series [3] (oral). Further, the NOAEL in series [2] (setting [6]) was found to be 250 mg/kg-day; in series [2] (short-term, duration: 5 days, inhalation, Sprague-Dawley), 547 mg/m3; in series [2] (short-term, duration: 28 days, inhalation, Sprague-Dawley) it was 547 mg/m3.

Molecule `CN(C)C(=O)Nc1cccc(C(F)(F)F)c1` [Fluometuron] showed an NOAEL in series [4] (chronic, duration: 103 weeks, oral, diet, M/F, no effects) of 12.5 mg/kg-day.

In series [2] (chronic, duration: 150 days, oral, gavage), `[Cl-].[Cl-].[Co+2]` [Cobalt chloride] displayed an LOAEL of 4 mg/kg-day. Moreover, in series [3] (developmental, duration: 5 days, oral, gavage, ICR), the no observed adverse effect level (NOAEL) was 180 mg/kg-day.

As to `Nc1ccc(Oc2ccc(N)cc2)cc1` [4,4'-Oxydianiline], the NOEL in series [1] (M, Food Consumption: decrease + Hematology: RBC decrease, R Hgb decrease, R RET increase, R Hct decrease, MCHC decrease, R APTT decrease, WBC …) was determined as 3 mg/kg-day. The LD50 in series [2] (oral, gavage) is ≥ 675 mg/kg and ≤ 775 mg/kg; in series [3] (oral, gavage), ≥ 635 mg/kg and ≤ 735 mg/kg. Moreover, the no-observed-adverse-effect level (NOAEL) was 10 mg/kg-day in series [2] (developmental, oral, gavage, Sprague-Dawley); 100 ppm in series [2] (setting [7]); 100 ppm in series [2] (setting [8]); 100 ppm in series [2] (setting [9]); 100 ppm in series [2] (setting [10]); 10 mg/kg-day in series [2] (setting [6]). Also, the lowest-observed-adverse-effect level (LOAEL) in series [2] (setting [7]), in series [2] (setting [8]), in series [2] (setting [9]) and in series [2] (setting [10]) was 400 ppm each time.

In the case of `CCCCCCCCCCCCCCCCCCOC(=O)CCSCCC(=O)OCCCCCCCCCCCCCCCCCC` [Distearyl thiodipropionate], the LD50 is over 2000 mg/kg in series [2] (dermal); over 5000 mg/kg in series [2] (oral); over 2000 mg/kg in series [3] (injection, Intraperitoneal); over 2000 mg/kg in series [3] (oral).

Consider `CCCCCCCCOC(=O)c1ccccc1C(=O)OCCCCCCCC` [Di-n-octyl phthalate], for which the LOAEL in series [5] (short-term, duration: 14 days, gavage, M, hepatic) came out at 1000 mg/kg-day. Also, the NOAEL was 40.8 mg/kg-day in series [5] (subchronic, duration: 13 weeks, diet, hepatic); 38.8 mg/kg-day in series [2] (reproduction developmental, duration: 13 weeks, oral, diet, Sprague-Dawley); 9780 mg/kg-day in series [3] (reproduction developmental, duration: 8 days, oral, gavage, F, CD1). The LD50 came to 53700 mg/kg in series [2] (oral) and 13000 mg/kg in series [3] (oral). The “NOAEL (% diet)” value was determined as 5 in series [3] (reproduction developmental, oral, CD1, generation: F0); 5 in series [3] (reproduction developmental, oral, CD1, generation: F1); 5 in series [3] (reproduction developmental, oral, CD1, generation: F2).

`Cl` [Hydrochloric acid] returned an LOAEL in series [4] (chronic, inhalation, M, hyperplasia of nasal mucosa larynx and trachea) of 15 mg/m3.

In the case of `Clc1cc(Cl)cc(C2(CC(Cl)(Cl)Cl)CO2)c1` (stereo not given) [Tridiphane], in series [4] (setting [11]), the LEL is 1.67 mg/kg-day and the NOEL was 0.33 mg/kg-day.

Consider `CC(C)OB(OC(C)C)OC(C)C` [Triisopropyl orthoborate], for which the median lethal dose (LD50) was determined as 8130 mg/kg in series [2] (oral, gavage) and 2500 mg/kg in series [3] (oral, Swiss).

Take `CCBr` [Bromoethane]: the LC50 in series [2] (inhalation, Fischer 344) worked out at 20900 mg/m3; in series [2] (inhalation, Sprague-Dawley), 120000 mg/m3; in series [3] (inhalation, B6C3F1), 12100 mg/m3; in series [3] (inhalation, CF1) it was 72200 mg/m3. The no-observed-adverse-effect level (NOAEL) in series [2] (chronic, duration: 14 weeks, inhalation, Fischer 344) was 1780 mg/m3; in series [2] (short-term, duration: 14 days, inhalation, Fischer 344), 2230 mg/m3; in series [3] (short-term, duration: 14 days, inhalation, B6C3F1), 2230 mg/m3.

In series [4] (setting [12]), `CC(C)C(C(=O)OC(C#N)c1cccc(Oc2ccccc2)c1)c1ccc(Cl)cc1` (stereo not given) [Fenvalerate] returned an LEL of 7.5 mg/kg-day and an NOEL of 2.5 mg/kg-day.

For the molecule `Oc1ccccc1Cl` [2-Chlorophenol], the NOAEL in series [5] (reproduction developmental, duration: 364 days, drinking water, reproductive) was found to be 7.6 mg/kg-day; in series [4] (setting [13]) it was 5 mg/kg-day. Besides, the LOAEL in series [4] (setting [13]) was 50 mg/kg-day.

Broadly, the LD50 is the dose at which mortality reaches 50%. Read a high LD50 as lower toxicity. As usually defined, the NOAEL is the highest tested level that showed no adverse finding. As a reminder, the LOAEL is the lowest dose or exposure tested at which an adverse effect was seen.

Values taken from EPA's ToxValDB 9.5.
